These results are taken from patent publication US4113864A (priority 1967, dated 1978).

The term mortality denotes the share of the test organisms that died.

Converted amounts (≈) assume the structure as drawn. Where two headings read alike, the source gives them in different places.

Data set [1] concerns rice blast fungi (Pyricularia orysae). The data set is classed as in vivo.
Data set [2] relates to rice blast fungi (Pyricularia oryzae). The data set is classed as in vivo.
Data set [3] concerns Adzuki bean weevils (Callosobruchus chinensis Linne). The data set is classed as in vivo. The following applies: emulsifiable concentrate; dip 1 minute; after 24 hours.
For data set [4], the system named is carmine mites (Tetranychus telarius Linne). Put plainly: Test Example 7: leaf dipping test on carmine mites, mortality after 48 hours. The data set is classed as in vivo. The following applies: wettable powder, leaf dip 1 minute. The procedure: Mottled kidney bean plants at the 2 leaves-stage, which had elapsed 20 days after sowing were parasitized with a large number of carmine mites (Tetranychus telarius Linne). […] Subsequently, water was added so as not to wither the leaves. After 48 hours, the alive and dead of the mites were observed.

Data set [5] has as its system carmine mite (Tetranychus telarius Linne). Put plainly: whole plant or invertebrate. The settings on record: in Phaseolus vulgaris.
Data set [6] has as its system carmine mites (Tetranychus terarius Linne). The data set can be described thus: whole plant or invertebrate. The following applies: in Glycine max, 72 h, read-out: Mortality (%) (average of 2 sections).
Data set [7] concerns northern house mosquitoes (Culex pipiens pallens Coquillett). The data set can be described thus: whole plant or invertebrate. The data set is classed as in vivo. The following applies: granules in water, after 24 hours. From the text:
Well water was charged into a 500 cc. beaker. Into the water, full grown larvae of northern house mosquitoes (Culex pipiens pallens Coquillett) were liberated, and the present compounds (12), (16), (17), (23), (25), (26), (27), (29), (30), (85), (87), (88), (89), (94), (95), (96), (97), (100), (102), (103), (104), (105), (106), (107), (108), (109) and (110) in the form of granules were individually charged.

Data set [8] deals with carmine mites (Tetranychus telarius Linne). Put plainly: whole plant or invertebrate. The settings on record: in Phaseolus vulgaris.
For data set [9], the system named is carmine mites (Tetranychus terarius Linne). Put plainly: Test Example 16: leaf dipping test on carmine mites, mortality after 48 hours. The settings on record: wettable powder, leaf dip 1 minute. The data set is classed as in vivo. The protocol:
Mottled kidney bean plants at the 2 leaves-stage, which had elapsed 20 days after sowing, were parasitized with a large number of carmine mites (Tetranychus terarius Linne). The leaves of said plants parasitized with the mites were individually dipped for 1 minute in each of solutions prepared by diluting with water the present compounds (35) to (37), (41) to (44) and (46) to (56) in the form of wettable powders. Subsequently, water was added so as not to wither the leaves. After 48 hours, the alive and dead of the mites were observed.

Data set [10] deals with carmine mite (Tetranychus teralius Linne). The following applies: dust 4 kg/10 ares.
The test system of data set [11] is carmine mites (Tetranychus terarius Linne). The settings on record: diluted 2,000 times; 100 Kg/10 ares; field; after 3 days.
In data set [12] the test system is Small brown plant hopper (Laoclelphex striatellus Fallen). Put plainly: Test Example 15: insecticidal effects on small brown plant hopper. The data set is classed as in vivo, Laodelphax striatellus Fallen. The following applies: rice seedlings dipped 1 minute in emulsion; after 24 hours. The protocol: Insecticidal effects on Small brown plant hopper (Laoclelphex striatellus Fallen)
Rice seedlings (15-20 cm. in height), which had elapsed 15 days after germination, were individually dipped for 1 minute in emulsions prepared by diluting with water to given concentrations the present compounds (10), (14), (19), (23), (31), (85), (88), (90), (93), (94), (103), (104), (106) and (109) in the form of emulsifiable concentrates. After air-drying, the rice seedlings were individually charged into test glass tubes, and 20-30 plant hoppers (Laodelphax striatellus Fallen) were liberated in each tube, and the tube was covered with gauze.

Data set [13] relates to rice steam borers (Chilo suppressalis Walker). The data set can be described thus: Test Example 11: mortality of rice stem borers on sprayed rice plants. The following applies: diluted 2,000 times; 6 cc. per pot; wettable powder; 4320 min. The data set is classed as in vivo. From the text:
Rice plants at the tillering stage were individually grown in Wagner pots. Onto the rice plants were adhered and encroached eggs of rice steam borers (Chilo suppressalis Walker) immediately before hatching. After 3 days, the rice plants were individually sprayed with each 6 cc. per pot of solutions prepared by diluting with water to 2,000 times the present compounds (11), (14), (15) and (31) in the form of wettable powders.

Data set [14] relates to carmine mite (Tetranychus telarius Linne). The following applies: dust 4 kg/10 ares.

On to `CCOP(=O)(OCC)SCc1ccccc1` [0,0-Diethyl-S-benzyl-phosphorothioate, reference compound], for which the figures for the Curative value in data set [1] (500 p.p.m.) and in data set [2] (1,000 p.p.m.) were 69.1 and 78.6, respectively. As to `CCOC(=O)CC(SP(=S)(OC)OC)C(=O)OCC` (stereo not drawn) [0,0-Dimethyl-S-(1,2-dicarboethoxyethyl) phosphorodithioate, reference compound], the “LC50 (diluted times)” value in data set [3] is listed as 8,800 diluted times.

For the molecule `CCOP(=S)(OCC)SC1OCCOC1SP(=S)(OCC)OCC` (stereo not drawn) [2,3-p-Dioxane S,S-bis-(0,0-diethyl phosphorodithioate), reference compound], in [4], the “LC50 (diluted times)” value is on record as 1,000,000 diluted times.

`CCCCSP(=O)(OCC)Oc1ccccc1` (stereo not drawn) [(1), O-ethyl-O-phenyl-S-n-butyl phosphorothiolate]: the Curative value in data set [1] (500 p.p.m.) is 80.1.

Consider `CCOP(=O)(Oc1ccccc1)SCCSc1ccccc1` (stereo not drawn) [(5), O-ethyl-O-phenyl-S-2-phenylthioethyl-phosphorothiolate], for which the mortality at 4 kg/10 ares in data set [5] (48 h) is 100%; in data set [5] (120 h) it was 98.8%; in data set [5] (216 h), 83.4%; in [5] (312 h), 34.4%. `C=CCSP(=O)(OCC)Oc1ccc(C)cc1` (stereo not drawn) [(33), O-ethyl-O-4-methylphenyl-S-allyl-phosphorothiolate]: in data set [6], the mortality at 2000 fold dilution is 90.7%. With `CCCSP(=O)(OCC)Oc1cc(C)c(Cl)c(C)c1` (stereo not drawn) [(87)], the LC50 in [7] (Culex pipiens, read-out: LC50) was 0.054 µg/mL (≈ 0.167 µM). The mortality at 2000 fold dilution in data set [6] came out at 90.6%. Also, the mortality at 4 kg/10 ares in data set [8] (48 h) turned out to be 100%; in data set [8] (120 h), 93.7%; in data set [8] (216 h) it was 82.3%; in data set [8] (312 h), 31.6%. `CCOC(=O)C(O)(c1ccc(Cl)cc1)c1ccc(Cl)cc1` [Ethyl 4,4'-dichlorobenzilate, reference compound]: the “LC50 (diluted times)” value in data set [4] is recorded as 100,000 diluted times. As to “O-ethyl-O-2,4-dichlorophenyl-S-N-phthalimidemethyl-phosphorothiolate [(53)]”, the “LC50 (times diluted)” value in data set [9] is 1,000,000 times diluted. Take “O-ethyl-O-2,4-dichlorophenyl-S-allyl phosphorothiolate [(49)]”: the “LC50 (times diluted)” value in data set [9] is recorded as 60,000 times diluted. Same read-out and setting: under “O-ethyl-O-2,4-dichlorophenyl-S-sec-butyl-phosphorothiolate [(50)]” stands 90,000 times diluted. For the molecule “O-ethyl-O-2-chlorophenyl-S-2-phenylethyl phosphorothiolate [(13)]”, the “LC50 (diluted times)” value in data set [4] is recorded as 1,000,000 diluted times. In addition, the “Mortality (%)” value came to 100% in data set [10] (After 2 days), 95.3% in [10] (After 5 days), 92.1% in data set [10] (After 9 days) and 61.2% in [10] (After 13 days). For “O-ethyl-O-2-chlorophenyl-S-allyl-phosphorothiolate [(46)]”, in data set [9], the “LC50 (times diluted)” value is on record as 80,000 times diluted. In the case of “O-ethyl-O-2-chlorophenyl-S-propargyl phosphorothiolate [(48)]”, the “LC50 (times diluted)” value in data set [9] is listed as 150,000 times diluted. Turning to “O-ethyl-O-2-chlorophenyl-S-sec-butyl-phosphorothiolate [(47)]”, the “LC50 (times diluted)” value in data set [9] is recorded as 15,000 times diluted. Turning to “O-ethyl-O-3,4-dimethyl-S-2-phenylthioethylphosphorothiolate [(52)]”, the “LC50 (times diluted)” value in [9] is recorded as 900,000 times diluted. With “O-ethyl-O-3,4-dimethylphenyl-S-2-phenylethyl-phosphorothiolate [(9)]”, the “LC50 (diluted times)” value in data set [3] is reported as 200,000 diluted times. For the same molecule, the “Mortality (%)” value in [10] (After 2 days) amounted to 100%; in data set [10] (After 5 days), 99.2%; in data set [10] (After 9 days) it was 83.4%; in [10] (After 13 days), 53.4%. Regarding “O-ethyl-O-3,5-dimethyl-4-chlorophenyl-S-sec-butyl phosphorothiolate [(54)]”, the “LC50 (times diluted)” value in data set [9] is given as 70,000 times diluted. Regarding “O-ethyl-O-4-chlorophenyl-3-sec-butyl phosphorothiolate [(44)]”, the “LC50 (times diluted)” value in data set [9] is listed as 330,000 times diluted. The same measure, in the same setting: under “O-ethyl-O-4-chlorophenyl-S-2-ethylthio-ethyl-phosphorothiolate [(51)]” stands 1,200,000 times diluted; under “O-ethyl-O- 3,4-dimethylphenyl-s-(sec)-butyl phosphorothiolate [(37)]”, 50,000 times diluted. With “O-ethyl-O- 3-methyl-4-chlorophenyl-S-2-phenylethyl-phosphorothiolate [(12)]”, the “LC50 (diluted times)” value in data set [3] is 180,000 diluted times. In [7], this molecule came in with an LC50 of 0.02 p.p.m. Moreover, the “Mortality (%) (average of 2 sections)” value in data set [11] stood at 100.0%. Consider “O-ethyl-O- 3-methylphenyl-S-2-phenylethyl phosphorothiolate [(10)]”, for which the “LC50 (diluted times)” value in data set [4] was 6,000,000 diluted times; in data set [3], 300,000 diluted times. Further, the “LC50 (times diluted)” value in data set [12] was 512,000 times diluted.

Turning to “O-ethyl-O- 3-methylphenyl-S-(sec)-butyl-phosphorothiolate [(42)]”, in data set [9], the “LC50 (times diluted)” value was 1,100,000 times diluted. Take “O-ethyl-O- 3-methylphenyl-S-allyl-phosphorothiolate [(41)]”: in data set [9], the “LC50 (times diluted)” value is 1,100,000 times diluted. On to “O-ethyl-O- 4-(tert)-butylphenyl-S-allyl phosphorothiolate [(36)]”, for which, in data set [9], the “LC50 (times diluted)” value is given as 540,000 times diluted.

On to “O-ethyl-O- 4-chlorophenyl-S-2-phenylethyl phosphorothiolate [(11)]”, for which the “LC50 (diluted times)” value in data set [4] is listed as 256,000 diluted times; in data set [3] it was 105,000 diluted times. Further, the “Mortality (%)” value in data set [13] is reported as 96.3%. In [2] (in vivo), the “Curative value” was found to be 87.1. Regarding “O-ethyl-O- 4-chlorophenyl-S-allylphosphorothiolate [(43)]”, the “LC50 (times diluted)” value in data set [9] is reported as 11,000 times diluted. In the case of “O-ethyl-O- 4-methylphenyl-S-(sec)-butyl-phosphorothiolate [(34)]”, in data set [2] (in vivo), the “Curative value” is on record as 97.2. Besides, the “Mortality (%) (average of 2 sections)” value in [11] is recorded as 96.4%. For the molecule “O-ethyl-O- 4-methylphenyl-S-propargyl phosphorothiolate [(35)]”, the “LC50 (times diluted)” value in [9] was 12,000,000 times diluted. With “O-ethyl-O-phenyl-S-2-phenylethyl-phosphorothiolate [(4)]”, the Mortality (%) was found to be 100% in data set [14] (After 2 days), 92.4% in [14] (After 5 days), 81.3% in data set [14] (After 9 days) and 70.3% in [14] (After 13 days). In [1] (in vivo), “O-ethyl-O-phenyl-S-allylphosphorothiolate [(3)]” showed a Curative value of 98.6. Take “O-ethyl-O-phenyl-S-sec-butyl phosphorothiolate [(55)]”: the “LC50 (times diluted)” value in data set [9] was 90,000 times diluted. Regarding “Phenylmercuric acetate [reference compound]”, the figures for the Curative value in data set [1] (in vivo) and in [2] (in vivo) were 47.6 and 47.7, respectively.
